Source: patent publication US8569344B2, “N-piperidinyl acetamide derivatives as calcium channel blockers” (Zalicus Pharmaceuticals Ltd., priority 2008, dated 2013)

Key:
[1] = target: T1, human α1G T-type channels (Homo sapiens, UniProt O43497); assay: T-type calcium channel block, whole cell patch clamp in HEK cells (α1G); type: cell-based; details: HEK cells, patch clamp, mainly non-inactivated protocol; values above 10 μM shown as 10 μM, below 0.30 μM shown as 0.30 μM; read-out: T-type Calcium Channel Block α1G IC50
T1 construct: expressed in transfected cells; host or cells: HEK 293

[2] = target: T2, human α1H T-type channels (Homo sapiens, UniProt O95180); assay: T-type calcium channel block, whole cell patch clamp in HEK cells (α1H); type: cell-based; details: HEK cells, patch clamp, mainly non-inactivated protocol; values above 10 μM shown as 10 μM; read-out: T-type Calcium Channel Block α1H IC50
T2 construct: expressed in transfected cells; host or cells: HEK 293
T2 sequence (O95180 whole entry): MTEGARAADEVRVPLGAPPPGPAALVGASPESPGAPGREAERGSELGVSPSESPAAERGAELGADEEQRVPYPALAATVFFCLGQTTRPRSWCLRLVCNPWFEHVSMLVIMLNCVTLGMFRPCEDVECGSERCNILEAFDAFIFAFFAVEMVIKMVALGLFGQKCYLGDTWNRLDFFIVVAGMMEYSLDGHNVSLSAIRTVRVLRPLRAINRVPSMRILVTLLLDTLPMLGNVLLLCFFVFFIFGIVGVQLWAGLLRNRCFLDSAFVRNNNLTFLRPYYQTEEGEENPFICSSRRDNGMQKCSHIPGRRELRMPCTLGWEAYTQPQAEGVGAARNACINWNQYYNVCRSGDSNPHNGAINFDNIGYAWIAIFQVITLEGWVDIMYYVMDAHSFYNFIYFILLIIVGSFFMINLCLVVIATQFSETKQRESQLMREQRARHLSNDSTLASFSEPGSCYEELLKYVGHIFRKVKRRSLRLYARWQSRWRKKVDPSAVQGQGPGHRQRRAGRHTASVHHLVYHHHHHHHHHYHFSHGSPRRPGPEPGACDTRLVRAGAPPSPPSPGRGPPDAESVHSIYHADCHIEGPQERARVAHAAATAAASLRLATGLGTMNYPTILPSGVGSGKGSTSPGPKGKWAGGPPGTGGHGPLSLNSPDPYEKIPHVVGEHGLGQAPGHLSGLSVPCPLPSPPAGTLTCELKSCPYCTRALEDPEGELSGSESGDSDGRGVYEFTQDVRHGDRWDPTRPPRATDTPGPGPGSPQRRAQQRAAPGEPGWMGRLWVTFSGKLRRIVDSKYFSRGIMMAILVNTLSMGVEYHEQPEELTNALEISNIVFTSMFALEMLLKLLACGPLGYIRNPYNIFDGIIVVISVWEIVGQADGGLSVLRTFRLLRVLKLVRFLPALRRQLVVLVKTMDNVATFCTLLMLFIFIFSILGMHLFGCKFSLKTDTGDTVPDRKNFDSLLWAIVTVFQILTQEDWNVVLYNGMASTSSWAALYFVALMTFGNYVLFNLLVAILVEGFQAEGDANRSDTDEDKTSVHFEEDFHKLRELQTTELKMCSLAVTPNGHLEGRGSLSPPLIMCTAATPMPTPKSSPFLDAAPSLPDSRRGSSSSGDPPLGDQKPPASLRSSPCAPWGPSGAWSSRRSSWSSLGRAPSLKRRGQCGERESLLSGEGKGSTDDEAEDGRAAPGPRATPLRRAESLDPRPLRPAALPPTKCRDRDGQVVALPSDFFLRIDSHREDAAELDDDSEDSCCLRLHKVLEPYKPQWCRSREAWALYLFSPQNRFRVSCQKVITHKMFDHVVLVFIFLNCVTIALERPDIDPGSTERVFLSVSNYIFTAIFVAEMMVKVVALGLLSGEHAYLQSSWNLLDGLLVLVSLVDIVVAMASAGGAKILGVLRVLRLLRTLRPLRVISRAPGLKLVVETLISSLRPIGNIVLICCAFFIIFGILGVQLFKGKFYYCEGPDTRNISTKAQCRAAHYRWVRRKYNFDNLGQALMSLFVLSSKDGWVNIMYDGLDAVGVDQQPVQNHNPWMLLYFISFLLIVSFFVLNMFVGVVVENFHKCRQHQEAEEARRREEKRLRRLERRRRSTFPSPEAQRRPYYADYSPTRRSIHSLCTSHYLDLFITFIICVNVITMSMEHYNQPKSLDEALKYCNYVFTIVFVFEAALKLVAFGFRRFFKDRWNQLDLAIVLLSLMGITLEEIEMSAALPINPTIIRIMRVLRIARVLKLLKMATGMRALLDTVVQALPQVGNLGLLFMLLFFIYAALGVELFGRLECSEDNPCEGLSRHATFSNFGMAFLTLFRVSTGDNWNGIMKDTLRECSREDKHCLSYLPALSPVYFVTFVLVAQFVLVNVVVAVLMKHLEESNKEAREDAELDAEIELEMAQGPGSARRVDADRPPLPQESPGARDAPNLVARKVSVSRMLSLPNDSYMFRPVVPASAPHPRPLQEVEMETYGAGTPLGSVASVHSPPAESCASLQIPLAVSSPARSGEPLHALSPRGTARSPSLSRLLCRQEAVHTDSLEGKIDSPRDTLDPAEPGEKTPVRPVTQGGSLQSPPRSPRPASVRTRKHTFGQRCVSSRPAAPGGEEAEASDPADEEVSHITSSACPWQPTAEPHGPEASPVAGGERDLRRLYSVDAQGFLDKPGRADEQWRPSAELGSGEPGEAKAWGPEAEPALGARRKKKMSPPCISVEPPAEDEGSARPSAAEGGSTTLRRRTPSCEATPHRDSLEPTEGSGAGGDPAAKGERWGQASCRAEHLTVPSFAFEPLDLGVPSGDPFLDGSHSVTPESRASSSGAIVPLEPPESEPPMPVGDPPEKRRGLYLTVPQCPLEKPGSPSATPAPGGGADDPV

T1 sequence (O43497 whole entry): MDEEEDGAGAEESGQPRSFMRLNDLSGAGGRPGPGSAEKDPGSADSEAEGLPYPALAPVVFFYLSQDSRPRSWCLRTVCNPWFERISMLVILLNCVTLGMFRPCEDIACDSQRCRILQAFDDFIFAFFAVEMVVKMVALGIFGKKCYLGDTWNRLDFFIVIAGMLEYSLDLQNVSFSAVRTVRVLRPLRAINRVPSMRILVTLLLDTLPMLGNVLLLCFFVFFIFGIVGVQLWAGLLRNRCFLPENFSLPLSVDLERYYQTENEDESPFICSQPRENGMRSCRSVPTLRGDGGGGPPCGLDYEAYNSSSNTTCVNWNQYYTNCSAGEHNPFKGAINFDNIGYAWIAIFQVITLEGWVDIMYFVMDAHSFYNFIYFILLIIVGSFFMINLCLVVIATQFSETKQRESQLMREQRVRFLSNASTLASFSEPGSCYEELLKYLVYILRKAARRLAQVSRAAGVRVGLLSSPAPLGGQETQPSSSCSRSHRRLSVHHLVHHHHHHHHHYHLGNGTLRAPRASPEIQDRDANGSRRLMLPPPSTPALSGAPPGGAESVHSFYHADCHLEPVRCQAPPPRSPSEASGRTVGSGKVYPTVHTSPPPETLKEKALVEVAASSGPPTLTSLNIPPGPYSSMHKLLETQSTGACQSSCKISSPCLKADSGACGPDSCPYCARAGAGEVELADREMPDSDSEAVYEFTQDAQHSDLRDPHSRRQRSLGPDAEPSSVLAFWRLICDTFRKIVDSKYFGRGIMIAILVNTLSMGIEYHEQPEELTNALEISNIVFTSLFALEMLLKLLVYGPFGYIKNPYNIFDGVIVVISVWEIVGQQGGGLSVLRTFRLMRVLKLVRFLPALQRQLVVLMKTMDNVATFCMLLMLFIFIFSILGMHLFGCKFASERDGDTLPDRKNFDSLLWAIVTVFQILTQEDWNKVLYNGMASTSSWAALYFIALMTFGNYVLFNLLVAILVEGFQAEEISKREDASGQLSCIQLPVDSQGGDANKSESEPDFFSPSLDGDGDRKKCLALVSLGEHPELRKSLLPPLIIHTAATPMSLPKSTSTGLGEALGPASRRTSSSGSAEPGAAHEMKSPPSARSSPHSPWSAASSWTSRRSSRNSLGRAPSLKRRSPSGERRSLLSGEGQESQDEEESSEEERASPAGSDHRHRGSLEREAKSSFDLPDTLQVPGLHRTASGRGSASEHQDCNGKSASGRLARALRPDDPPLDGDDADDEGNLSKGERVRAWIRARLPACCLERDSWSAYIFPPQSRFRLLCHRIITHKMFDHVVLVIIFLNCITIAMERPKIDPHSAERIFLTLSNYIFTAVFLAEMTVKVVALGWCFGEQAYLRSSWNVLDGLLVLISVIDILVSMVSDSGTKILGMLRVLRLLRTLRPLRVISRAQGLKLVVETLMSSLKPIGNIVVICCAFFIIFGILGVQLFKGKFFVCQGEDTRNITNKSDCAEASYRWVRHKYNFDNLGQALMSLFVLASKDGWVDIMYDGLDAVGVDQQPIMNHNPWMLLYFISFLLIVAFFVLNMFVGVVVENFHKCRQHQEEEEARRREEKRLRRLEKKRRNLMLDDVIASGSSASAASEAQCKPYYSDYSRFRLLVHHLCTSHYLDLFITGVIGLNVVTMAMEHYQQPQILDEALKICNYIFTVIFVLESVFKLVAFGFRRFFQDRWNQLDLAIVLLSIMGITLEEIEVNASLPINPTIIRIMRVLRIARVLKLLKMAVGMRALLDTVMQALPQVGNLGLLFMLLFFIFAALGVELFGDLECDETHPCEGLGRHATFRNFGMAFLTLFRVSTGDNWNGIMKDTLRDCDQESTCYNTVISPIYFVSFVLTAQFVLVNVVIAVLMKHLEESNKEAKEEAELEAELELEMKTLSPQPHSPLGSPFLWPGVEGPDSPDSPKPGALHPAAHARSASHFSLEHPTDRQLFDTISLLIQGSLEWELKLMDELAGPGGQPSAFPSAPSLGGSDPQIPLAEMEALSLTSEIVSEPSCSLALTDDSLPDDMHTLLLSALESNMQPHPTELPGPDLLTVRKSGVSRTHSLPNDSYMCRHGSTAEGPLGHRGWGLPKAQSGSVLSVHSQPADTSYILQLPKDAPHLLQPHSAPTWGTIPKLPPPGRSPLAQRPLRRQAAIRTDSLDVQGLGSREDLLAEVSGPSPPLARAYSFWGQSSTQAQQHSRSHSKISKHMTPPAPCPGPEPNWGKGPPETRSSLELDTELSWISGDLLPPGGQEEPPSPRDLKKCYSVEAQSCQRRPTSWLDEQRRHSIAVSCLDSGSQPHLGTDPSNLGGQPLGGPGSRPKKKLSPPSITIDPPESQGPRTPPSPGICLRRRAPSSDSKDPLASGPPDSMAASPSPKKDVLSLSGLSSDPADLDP

| SMILES | IC50 [1] | IC50 [2] |
| --- | --- | --- |
| CC(C)(C)C(=O)NCCN1CCC(CNC(=O)c2cccc(C(F)(F)F)c2)CC1 [Compound 296, N-((1-(2-pivalamidoethyl)piperidin-4-yl)methyl)-3-(trifluoromethyl)benzamide] | 610 nM | 1100 nM |
| CC(C)(C)C(=O)NCCN1CCC(CNC(=O)c2cc(Cl)cc(C(F)(F)F)c2)CC1 [Compound 301, 3-chloro-N-((1-(2-pivalamidoethyl)piperidin-4-yl)methyl)-5-(trifluoromethyl)benzamide] | < 300 nM | 450 nM |
| O=C(CCC(F)(F)F)NCCN1CCC(CNC(=O)c2cccc(C(F)(F)F)c2)CC1 [Compound 313, N-((1-(2-(4,4,4-trifluorobutanamido)ethyl)piperidin-4-yl)methyl)-3-(trifluoromethyl)benzamide] | 6310 nM | 620 nM |
| Cc1cc(F)cc(C(=O)NCC2CCN(CC(=O)NC(C)C)CC2)c1 [Compound 437, 3-fluoro-N-((1-(2-(isopropylamino)-2-oxoethyl)piperidin-4-yl)methyl)-5-methylbenzamide] | > 10000 nM | > 10000 nM |
| COCC(C)(C)NC(=O)CN1CCC(CNC(=O)c2cc(F)cc(C(F)(F)F)c2)CC1 [Compound 564, 3-fluoro-N-((1-(2-(1-methoxy-2-methylpropan-2-ylamino)-2-oxoethyl)piperidin-4-yl)methyl)-5-(trifluoromethyl)benzamide] | < 300 nM | 100 nM |
| CC(C)(C)C(=O)NCCN1CCC(CNC(=O)c2cccc(Cl)c2)CC1 [Compound 299, 3-chloro-N-((1-(2-pivalamidoethyl)piperidin-4-yl)methyl)benzamide] | 1210 nM | 1980 nM |
| COc1cc(F)cc(C(=O)NCC2CCN(CC(=O)NC(C)(C)C(F)(F)F)CC2)c1 [Compound 456, 3-fluoro-5-methoxy-N-((1-(2-oxo-2-(1,1,1-trifluoro-2-methylpropan-2-ylamino)ethyl)piperidin-4-yl)methyl)benzamide] | < 300 nM | 20 nM |
| O=C(NCC1CCN(CCNS(=O)(=O)C2CCC2)CC1)c1cc(F)cc(C(F)(F)F)c1 [Compound 306, N-((1-(2-(cyclobutanesulfonamido)ethyl)piperidin-4-yl)methyl)-3-fluoro-5-(trifluoromethyl)benzamide] | 340 nM | 390 nM |
| CC(C)(C)C(=O)NC1(CN2CCC(CNC(=O)c3cc(C(F)(F)F)cc(C(F)(F)F)c3)CC2)CC1 [Compound 361, N-((1-((1-pivalamidocyclopropyl)methyl)piperidin-4-yl)methyl)-3,5-bis(trifluoromethyl)benzamide] | 700 nM | 600 nM |
| CC(C)(NC(=O)CN1CCC(CNC(=O)c2cccc(Br)c2)CC1)C(F)(F)F [Compound 459, 3-bromo-N-((1-(2-oxo-2-(1,1,1-trifluoro-2-methylpropan-2-ylamino)ethyl)piperidin-4-yl)methyl)benzamide] | < 300 nM | 20 nM |
| CC(C)(C(=O)NCCN1CCC(CNC(=O)c2cccc(OC(F)(F)F)c2)CC1)C(F)(F)F [Compound 496, N-((1-(2-(3,3,3-trifluoro-2,2-dimethylpropanamido)ethyl)piperidin-4-yl)methyl)-3-(trifluoromethoxy)benzamide] | < 300 nM | 90 nM |
| COCC(COC)NC(=O)CN1CCC(CNC(=O)c2cc(C(F)(F)F)cc(C(F)(F)F)c2)CC1 [Compound 347, N-((1-(2-(1,3-dimethoxypropan-2-ylamino)-2-oxoethyl)piperidin-4-yl)methyl)-3,5-bis(trifluoromethyl) benzamide] | < 300 nM | 240 nM |
| O=C(/C=C/c1cc(F)cc(F)c1)NCC1CCN(CCNS(=O)(=O)C2CC2)CC1 [Compound 231, (E)-N-((1-(2-(cyclopropanesulfonamido)ethyl)piperidin-4-yl)methyl)-3-(3,5-difluorophenyl)acrylamide] | > 10000 nM | > 10000 nM |
| Cc1cc(F)cc(C(=O)NCC2CCN(CC(=O)N(C)C(C)(C)C)CC2)c1 [Compound 540, N-((1-(2-(tert-butyl(methyl)amino)-2-oxoethyl)piperidin-4-yl)methyl)-3-fluoro-5-methylbenzamide] | 1400 nM | 550 nM |
| CC(C)NC(=O)CN1CCC(CNC(=O)c2cccc(OC(F)(F)F)c2)CC1 [Compound 444, N-((1-(2-(isopropylamino)-2-oxoethyl)piperidin-4-yl)methyl)-3-(trifluoromethoxy)benzamide] | 7400 nM | > 10000 nM |
| COc1cc(F)cc(C(=O)NCC2CCN(CC(=O)NC(C)C)CC2)c1 [Compound 438, 3-fluoro-N-((1-(2-(isopropylamino)-2-oxoethyl)piperidin-4-yl)methyl)-5-methoxybenzamide] | 3910 nM | 1710 nM |
| CC(C)(C)S(=O)(=O)NCCN1CCC(CNC(=O)c2cccc(Cl)c2)CC1 [Compound 573, 3-chloro-N-((1-(2-(1,1-dimethylethylsulfonamido)ethyl)piperidin-4-yl)methyl)benzamide] | 1270 nM | 1010 nM |

| SMILES | IC50 [1] | IC50 [2] |
| --- | --- | --- |
| COCC(C)(C)NC(=O)CN1CCC(CNC(=O)c2cccc(Cl)c2)CC1 [Compound 566, 3-chloro-N-((1-(2-(1-methoxy-2-methylpropan-2-ylamino)-2-oxoethyl)piperidin-4-yl)methyl) benzamide] | 760 nM | 820 nM |
| O=C(/C=C/c1cc(F)cc(F)c1)NCC1CCN(CCNC(=O)CCC(F)(F)F)CC1 [Compound 314, (E)-N-(2-(4-((3-(3,5-difluorophenyl)acrylamido)methyl)piperidin-1-yl)ethyl)-4,4,4-trifluorobutanamide] | > 10000 nM | 9240 nM |
| CC(C)(C)OC(=O)NCCN1CCC(CNC(=O)c2ccc(Oc3ccccc3)cc2)CC1 [Compound 57, tert-buyl 2-(4-((4-phenoxybenzamido)methyl)piperidin-1-yl)ethylcarbamate] | 1050 nM | > 10000 nM |
| O=C(NCC1CCN(CCNS(=O)(=O)C2CC2)CC1)c1cc(Cl)sc1Cl [Compound 333, 2,5-dichloro-N-((1-(2-(cyclopropanesulfonamido)ethyl)piperidin-4-yl)methyl)thiophene-3-carboxamide] | 800 nM | 2420 nM |
| CC(C(=O)NC(C)(C)C(F)(F)F)N1CCC(CNC(=O)c2cc(F)cc(Cl)c2)CC1 (stereo not drawn) [Compound 547, 3-chloro-5-fluoro-N-((1-(1-oxo-1-(1,1,1-trifluoro-2-methylpropan-2-ylamino)propan-2-yl)piperidin-4-yl)methyl)benzamide] | < 300 nM | 30 nM |
| CCCNC(=O)CN1CCC(CNC(=O)c2cc(F)cc(C(F)(F)F)c2)CC1 [Compound 351, 3-fluoro-N-((1-(2-oxo-2-(propylamino)ethyl)piperidin-4-yl)methyl)-5-(trifluoromethyl)benzamide] | 1720 nM | 1300 nM |
| Cc1cc(F)cc(C(=O)NCC2CCN(CC(=O)NC3CCCC3)CC2)c1 [Compound 533, N-((1-(2-(cyclopentylamino)-2-oxoethyl)piperidin-4-yl)methyl)-3-fluoro-5-methylbenzamide] | 430 nM | 400 nM |
| O=C(NCC1CCN(CC2(NS(=O)(=O)CCC(F)(F)F)CC2)CC1)c1cc(C(F)(F)F)cc(C(F)(F)F)c1 [Compound 360, 3,5-bis(trifluoromethyl)-N-((1-((1-(3,3,3-trifluoropropylsulfonylamido)cyclopropyl)methyl)piperidin-4-yl)methyl)benzamide] | < 300 nM | 250 nM |
| CC(C)S(=O)(=O)NCCN1CCC(CNC(=O)c2cc(F)cc(Cl)c2)CC1 [Compound 385, 3-chloro-5-fluoro-N-((1-(2-(1-methylethylsulfonamido)ethyl)piperidin-4-yl)methyl)benzamide] | 580 nM | 800 nM |
| COc1cc(Cl)cc(C(=O)NCC2CCN(CCNS(=O)(=O)C(C)C)CC2)c1 [Compound 320, 3-chloro-5-methoxy-N-((1-(2-(1-methylethylsulfonamido)ethyl)piperidin-4-yl)methyl)benzamide] | 760 nM | 1620 nM |
| Cc1cc(F)cc(C(=O)NCC2CCN(CCNS(=O)(=O)C(C)(C)C)CC2)c1 [Compound 575, N-((1-(2-(1,1-dimethylethylsulfonamido)ethyl)piperidin-4-yl)methyl)-3-fluoro-5-methylbenzamide] | 1250 nM | 1040 nM |
| CC(C)(F)C(=O)NCCN1CCC(CNC(=O)c2cc(F)cc(C(F)(F)F)c2)CC1 [Compound 336, 3-fluoro-N-((1-(2-(2-fluoro-2-methylpropanamido)ethyl)piperidin-4-yl)methyl)-5-(trifluoromethyl)benzamide] | 1750 nM | 1160 nM |
| CN(CCN1CCC(CNC(=O)c2cc(F)cc(C(F)(F)F)c2)CC1)C(=O)CCC(F)(F)F [Compound 517, 3-fluoro-N-((1-(2-(4,4,4-trifluoro-N-methylbutanamido)ethyl)piperidin-4-yl)methyl)-5-(trifluoromethyl)benzamide] | 1100 nM | 420 nM |
| CCNC(=O)N(C)CCN1CCC(CNC(=O)c2cc(F)cc(C(F)(F)F)c2)CC1 [Compound 524, N-((1-(2-(3-ethyl-1-methylureido)ethyl)piperidin-4-yl)methyl)-3-fluoro-5-(trifluoromethyl) benzamide] | > 10000 nM | > 10000 nM |
| CC(C)(C)C(O)CN1CCC(CC(=O)Nc2cc(F)cc(C(F)(F)F)c2)CC1 (stereo not drawn) [Compound 169, N-(3-fluoro-5-(trifluoromethyl)phenyl)-2-(1-(2-hydroxy-3,3-dimethylbutyl)piperidin-4-yl)acetamide] | < 300 nM | 230 nM |
| CC(C)(C)OC(=O)NCCN1CCC(CNC(=O)c2cc(Cl)cc(Cl)c2)CC1 [Compound 43, tert-butyl 2-(4-((3,5-dichlorobenzamido)methyl)piperidin-1-yl)ethylcarbamate] | < 300 nM | 150 nM |
